From patent US20260116868A1 (Arcus Biosciences, Inc., priority 2023, published 2026)

Biological target: T1, Cbl-b (Homo sapiens, UniProt Q13191)
T1 construct: biotin (biotinylated protein)
Assay: Cbl-b probe displacement HTRF binding assay
Settings: 0.4 nM Cbl-b, 150 nM BODIPY probe
Outline: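 Binding IC50 from four-parameter fit of HTRF signal loss, normalised to DMSO (0%) and no-protein (100%) wells. Biotinylated Cbl-b 0.4 nM was preincubated 60 min with compound (20-point 1:2 dilution) before 15 min with 150 nM BODIPY probe; Tb-streptavidin detection.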

T1 sequence (Q13191 whole entry, species assumed): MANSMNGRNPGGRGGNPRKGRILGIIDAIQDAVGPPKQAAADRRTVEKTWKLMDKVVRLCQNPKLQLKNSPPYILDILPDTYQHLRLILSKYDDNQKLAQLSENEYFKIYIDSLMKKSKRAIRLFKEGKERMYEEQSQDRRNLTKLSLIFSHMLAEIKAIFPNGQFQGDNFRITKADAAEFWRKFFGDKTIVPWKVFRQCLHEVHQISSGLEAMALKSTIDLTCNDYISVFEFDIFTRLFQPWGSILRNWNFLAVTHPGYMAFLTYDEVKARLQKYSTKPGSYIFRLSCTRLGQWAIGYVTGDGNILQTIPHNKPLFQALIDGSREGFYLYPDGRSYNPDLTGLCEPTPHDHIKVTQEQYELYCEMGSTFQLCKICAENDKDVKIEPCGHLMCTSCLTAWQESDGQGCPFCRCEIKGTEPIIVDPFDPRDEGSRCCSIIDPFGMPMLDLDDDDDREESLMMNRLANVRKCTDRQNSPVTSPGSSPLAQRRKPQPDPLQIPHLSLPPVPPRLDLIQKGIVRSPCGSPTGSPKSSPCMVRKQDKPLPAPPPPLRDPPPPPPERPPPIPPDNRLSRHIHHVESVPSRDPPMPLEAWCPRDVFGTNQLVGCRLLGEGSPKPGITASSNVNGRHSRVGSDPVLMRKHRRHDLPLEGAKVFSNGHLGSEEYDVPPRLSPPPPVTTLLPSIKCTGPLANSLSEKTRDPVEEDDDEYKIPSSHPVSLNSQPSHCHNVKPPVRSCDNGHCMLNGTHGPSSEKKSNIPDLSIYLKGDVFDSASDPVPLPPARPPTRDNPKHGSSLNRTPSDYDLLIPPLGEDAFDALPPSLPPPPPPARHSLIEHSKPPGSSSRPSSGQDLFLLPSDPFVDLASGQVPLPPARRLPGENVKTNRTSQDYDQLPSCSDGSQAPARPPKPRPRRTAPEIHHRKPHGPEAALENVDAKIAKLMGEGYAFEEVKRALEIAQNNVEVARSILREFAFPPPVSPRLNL

| Structure (SMILES) | IC50 [nM] |
| --- | --- |
| CO[C@@H](C)CNCc1cc(C(=O)Nc2cc(-c3ccc(OC(F)F)cc3C(=O)N3CC(F)(F)C3)cc(C3CC3)n2)c(=O)n(C)c1 [Example 176] | < 100 |
| CO[C@@H](C)CNCc1cc(C(=O)Nc2cc(-c3c(F)cc(Cl)cc3C(=O)N3CC(F)(F)C3)cc(C3CC3)n2)c(=O)n(C)c1 [Example 177] | < 100 |
| CO[C@@H](C)CNCc1cc(C(=O)Nc2cc(-c3ccc(C#N)cc3C(=O)N3CC(F)(F)C3)cc(C3CC3)n2)c(=O)n(C)c1 [Example 178] | < 100 |
| N#Cc1ccc(-c2cc(NC(=O)c3cc(CNC[C@@H]4CCCO4)cn(CC(F)(F)F)c3=O)nc(C3CC3)c2)c(C(=O)N2CC(F)(F)C2)c1 [Example 179] | < 100 |
| CCOc1cc(-c2ccc(Cl)cc2C(=O)N2CC(F)(F)C2)cc(NC(=O)c2cc(CNC[C@H](C)OC)cn(C)c2=O)n1 [Example 180] | < 100 |
| CCOc1cc(-c2ccc(C#N)cc2C(=O)N2CC(F)(F)C2)cc(NC(=O)c2cc(CNC[C@H](C)OC)cn(C)c2=O)n1 [Example 181] | < 100 |
| CCNc1cc(-c2ccc(Cl)cc2C(=O)N2CC(F)(F)C2)cc(NC(=O)c2cc(CNC[C@@H]3CCCO3)cn(C)c2=O)n1 [Example 182] | < 100 |
| CCOc1cc(-c2ccc(C#N)cc2C(=O)N2CC(F)(F)C2)cc(NC(=O)c2cc(CNC[C@@H]3CCCO3)cn(C)c2=O)n1 [Example 183] | < 100 |
| CCNc1cc(-c2ccc(Cl)cc2C(=O)N2CC(F)(F)C2)cc(NC(=O)c2cc(CNCC(C)C)cn(C)c2=O)n1 [Example 184] | < 100 |
| Cn1cc(CNC[C@@H]2CCCO2)cc(C(=O)Nc2cc(-c3ccc(OC(F)F)cc3C(=O)N3CC(F)(F)C3)cc(C3CC3)n2)c1=O [Example 185] | < 100 |
| CCn1cc(CNC[C@@H]2CCCO2)cc(C(=O)Nc2cc(-c3ccc(C#N)cc3C(=O)N3CC(F)(F)C3)cc(C3CC3)n2)c1=O [Example 186] | < 100 |
| COCCNCc1cc(C(=O)Nc2cc(-c3ccc(C#N)cc3C(=O)N3CC(F)(F)C3)cc(C3CC3)n2)c(=O)n(C)c1 [Example 187] | < 100 |
| C[C@H](NCc1cc(C(=O)Nc2cc(-c3ccc(C#N)cc3C(=O)N3CC(F)(F)C3)cc(C3CC3)n2)c(=O)n(CC(F)(F)F)c1)C1CC1 [Example 188] | < 100 |
| CCn1cc(CNCC2CC2)cc(C(=O)Nc2cc(-c3ccc(C#N)cc3C(=O)N3CC(F)(F)C3)cc(C3CC3)n2)c1=O [Example 189] | < 100 |
| Cn1cc(CNC[C@@H]2CCCCO2)cc(C(=O)Nc2cc(-c3ccc(C#N)cc3C(=O)N3CC(F)(F)C3)cc(C3CC3)n2)c1=O [Example 190] | < 100 |
| CO[C@@H](C)CNCc1cc(C(=O)Nc2cc(-c3ccc(C#N)cc3C(=O)N3CC(F)(F)C3)cc(N(C)C)n2)c(=O)n(C2CC2)c1 [Example 191] | < 100 |
| Cn1cc(CNCC2CC2)cc(C(=O)Nc2cc(-c3ccc(C#N)cc3C(=O)N3CC(F)(F)C3)cc(C3CC3)n2)c1=O [Example 192] | < 100 |
| CC(C)CNCc1cc(C(=O)Nc2cc(-c3ccc(C#N)cc3C(=O)N3CC(F)(F)C3)cc(N(C)C)n2)c(=O)n(C2CC2)c1 [Example 193] | < 100 |
| COCCNCc1cc(C(=O)Nc2cc(-c3ccc(C#N)cc3C(=O)N3CC(F)(F)C3)cc(C3CC3)n2)c(=O)n(CC(F)(F)F)c1 [Example 194] | < 100 |
| CO[C@@H](C)CNCc1cc(C(=O)Nc2cc(-c3ccc(C#N)cc3C(=O)N3CC(F)(F)C3)cc(OC3CC3)n2)c(=O)n(C2CC2)c1 [Example 195] | < 100 |
| CCOc1cc(-c2ccc(C#N)cc2C(=O)N2CC(F)(F)C2)cc(NC(=O)c2cc(CN[C@@H](C)C3CCC3)cn(C3CC3)c2=O)n1 [Example 196] | < 100 |
| CO[C@@H](C)CNCc1cc(C(=O)Nc2cc(-c3ccc(OC(F)F)cc3C(=O)N3CC(F)(F)C3)cc(OC(C)C)n2)c(=O)n(C2CC2)c1 [Example 197] | < 100 |
| CO[C@@H](C)CNCc1cc(C(=O)Nc2cc(-c3c(F)cc(Cl)cc3C(=O)N3CC(F)(F)C3)cc(NC(C)C)n2)c(=O)n(C2CC2)c1 [Example 198] | < 100 |
